Like-named read-outs stand apart in the source and are kept apart here.
Key:
[1] = biological target: EGFR wild type (EGFR WT) (Homo sapiens (Human), UniProt P00533); test: Cellular phosphorylation assay, EGF-stimulated EGFR phosphorylation in engineered NIH 3T3 cells, Phospho-EGFR DuoSet IC ELISA, Assay 5; type: cell-based
Method in brief: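 Phospho-EGFR ELISA on lysates of engineered NIH 3T3 EGFR WT cells, IC50 derived from concentration curves. Cells plated at 20,000/well overnight, given compound dilutions 1 h at 37 °C, then rEGF 100 ng/ml for a further 10 min before lysis.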

[2] = biological target: EGFR (Homo sapiens (Human), UniProt P00533); test: ErbB enzyme assay (CisBio HTRF KinEASE-TK), Assay 3; type: biochemical
Sequence of EGFR (P00533 25-1210): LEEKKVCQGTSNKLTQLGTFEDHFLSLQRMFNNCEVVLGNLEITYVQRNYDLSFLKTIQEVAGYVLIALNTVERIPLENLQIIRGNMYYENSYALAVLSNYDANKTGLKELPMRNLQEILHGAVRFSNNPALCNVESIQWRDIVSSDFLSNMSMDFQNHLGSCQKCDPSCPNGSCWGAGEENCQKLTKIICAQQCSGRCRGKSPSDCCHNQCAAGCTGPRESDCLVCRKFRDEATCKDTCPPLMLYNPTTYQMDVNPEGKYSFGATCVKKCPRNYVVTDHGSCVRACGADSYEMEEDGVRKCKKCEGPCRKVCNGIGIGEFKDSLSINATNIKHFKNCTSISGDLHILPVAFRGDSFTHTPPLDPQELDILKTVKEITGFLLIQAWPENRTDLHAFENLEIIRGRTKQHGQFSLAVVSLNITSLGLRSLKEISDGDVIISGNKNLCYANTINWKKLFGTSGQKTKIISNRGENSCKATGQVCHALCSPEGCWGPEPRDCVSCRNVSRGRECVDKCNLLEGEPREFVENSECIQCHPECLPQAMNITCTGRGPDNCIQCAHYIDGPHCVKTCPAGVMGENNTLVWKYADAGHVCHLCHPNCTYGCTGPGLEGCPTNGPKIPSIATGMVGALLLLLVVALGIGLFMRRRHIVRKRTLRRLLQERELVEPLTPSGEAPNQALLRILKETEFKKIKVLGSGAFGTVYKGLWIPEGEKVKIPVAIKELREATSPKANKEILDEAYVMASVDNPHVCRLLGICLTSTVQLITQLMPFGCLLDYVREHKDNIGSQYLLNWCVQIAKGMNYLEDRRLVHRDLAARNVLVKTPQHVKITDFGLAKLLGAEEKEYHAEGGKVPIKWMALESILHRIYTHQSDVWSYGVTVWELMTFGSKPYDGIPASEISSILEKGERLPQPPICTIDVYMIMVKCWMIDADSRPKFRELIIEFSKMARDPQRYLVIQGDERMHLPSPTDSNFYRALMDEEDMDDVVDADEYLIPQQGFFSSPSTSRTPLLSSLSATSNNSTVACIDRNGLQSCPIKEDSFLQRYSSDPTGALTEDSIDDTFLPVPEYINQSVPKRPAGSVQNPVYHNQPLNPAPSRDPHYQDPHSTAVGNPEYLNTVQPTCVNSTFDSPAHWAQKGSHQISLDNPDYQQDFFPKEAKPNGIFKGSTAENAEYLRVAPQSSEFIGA
Method in brief: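 HTRF dual-wavelength read after 1 h detection; POC normalised to DMSO (100) and pre-quenched (0) controls, IC50 where 4-parameter curve crosses 50 POC. Reaction: 250 nM TK-substrate biotin, 1 mM ATP, pH 7.4 HEPES buffer with MgCl2, 30 min, 22 °C.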

[3] = biological target: ErbB2 WT (Homo sapiens (Human), UniProt P04626); test: ErbB enzyme assay (CisBio HTRF KinEASE-TK), Assay 2; type: biochemical
Method in brief: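 Readout is HTRF KinEASE-TK, using Sa-XL665 and cryptate antibody for 1 h at 22 °C, as percent of control between DMSO-only (100) and pre-quenched (0) reactions. The kinase reaction runs 30 min at 22 °C with 1 mM ATP and 250 nM biotinylated TK substrate, in HEPES pH 7.4 with MgCl2 and 2% DMSO.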

[4] = biological target: ErbB2 insYVMA (HER2-YVMA, SEQ ID NO: 2) (Homo sapiens, UniProt P04626, INS775YVMA/P1170A); test: biochemical; conditions: ErbB2 insYVMA enzyme assay
Sequence of ErbB2 insYVMA (HER2-YVMA, SEQ ID NO: 2) (P04626 with tags, fused parts or gaps INS775YVMA/P1170A limits assumed): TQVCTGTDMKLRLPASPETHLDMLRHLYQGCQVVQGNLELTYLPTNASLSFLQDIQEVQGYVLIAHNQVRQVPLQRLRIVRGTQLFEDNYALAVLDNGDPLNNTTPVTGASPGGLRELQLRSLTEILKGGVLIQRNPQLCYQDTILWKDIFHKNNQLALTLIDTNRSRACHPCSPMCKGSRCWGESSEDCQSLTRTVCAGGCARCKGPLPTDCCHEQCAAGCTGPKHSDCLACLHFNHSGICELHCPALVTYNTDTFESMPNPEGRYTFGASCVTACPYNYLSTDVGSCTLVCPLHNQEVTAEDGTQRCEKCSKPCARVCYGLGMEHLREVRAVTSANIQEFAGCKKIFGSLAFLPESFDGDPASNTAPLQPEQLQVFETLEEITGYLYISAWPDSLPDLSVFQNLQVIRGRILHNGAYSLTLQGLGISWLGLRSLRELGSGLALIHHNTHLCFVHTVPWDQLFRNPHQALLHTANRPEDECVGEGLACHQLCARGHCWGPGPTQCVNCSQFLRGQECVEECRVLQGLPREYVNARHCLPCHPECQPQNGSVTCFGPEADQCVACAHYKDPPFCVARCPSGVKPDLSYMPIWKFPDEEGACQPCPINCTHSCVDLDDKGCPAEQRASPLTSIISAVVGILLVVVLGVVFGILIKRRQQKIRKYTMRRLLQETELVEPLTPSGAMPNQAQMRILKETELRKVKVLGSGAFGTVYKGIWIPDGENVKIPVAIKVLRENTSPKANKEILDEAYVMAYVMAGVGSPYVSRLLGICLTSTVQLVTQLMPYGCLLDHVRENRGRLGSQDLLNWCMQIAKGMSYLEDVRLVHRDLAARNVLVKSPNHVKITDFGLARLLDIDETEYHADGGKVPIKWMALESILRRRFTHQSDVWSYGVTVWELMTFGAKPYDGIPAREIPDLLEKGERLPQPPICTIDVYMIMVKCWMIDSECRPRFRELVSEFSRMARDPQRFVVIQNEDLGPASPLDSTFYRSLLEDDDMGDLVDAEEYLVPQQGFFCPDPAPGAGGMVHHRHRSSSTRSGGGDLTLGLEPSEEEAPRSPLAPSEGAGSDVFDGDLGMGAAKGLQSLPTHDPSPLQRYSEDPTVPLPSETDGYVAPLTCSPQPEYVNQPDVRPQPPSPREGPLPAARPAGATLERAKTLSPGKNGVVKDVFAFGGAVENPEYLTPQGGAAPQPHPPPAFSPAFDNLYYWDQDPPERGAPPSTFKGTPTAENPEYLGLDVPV

[5] = biological target: ErbB2 with Exon 20 YVMA insertion (HER2-YVMA) (Homo sapiens (Human), UniProt P04626, INS775YVMA); test: Cellular phosphorylation assay, constitutive ErbB2 phosphorylation (Y1196) in engineered NIH 3T3 cells, Assay 4; type: cell-based
Sequence of ErbB2 with Exon 20 YVMA insertion (HER2-YVMA) (P04626 other isoform, or with tags, fused parts or gaps ins YVMA behind 775): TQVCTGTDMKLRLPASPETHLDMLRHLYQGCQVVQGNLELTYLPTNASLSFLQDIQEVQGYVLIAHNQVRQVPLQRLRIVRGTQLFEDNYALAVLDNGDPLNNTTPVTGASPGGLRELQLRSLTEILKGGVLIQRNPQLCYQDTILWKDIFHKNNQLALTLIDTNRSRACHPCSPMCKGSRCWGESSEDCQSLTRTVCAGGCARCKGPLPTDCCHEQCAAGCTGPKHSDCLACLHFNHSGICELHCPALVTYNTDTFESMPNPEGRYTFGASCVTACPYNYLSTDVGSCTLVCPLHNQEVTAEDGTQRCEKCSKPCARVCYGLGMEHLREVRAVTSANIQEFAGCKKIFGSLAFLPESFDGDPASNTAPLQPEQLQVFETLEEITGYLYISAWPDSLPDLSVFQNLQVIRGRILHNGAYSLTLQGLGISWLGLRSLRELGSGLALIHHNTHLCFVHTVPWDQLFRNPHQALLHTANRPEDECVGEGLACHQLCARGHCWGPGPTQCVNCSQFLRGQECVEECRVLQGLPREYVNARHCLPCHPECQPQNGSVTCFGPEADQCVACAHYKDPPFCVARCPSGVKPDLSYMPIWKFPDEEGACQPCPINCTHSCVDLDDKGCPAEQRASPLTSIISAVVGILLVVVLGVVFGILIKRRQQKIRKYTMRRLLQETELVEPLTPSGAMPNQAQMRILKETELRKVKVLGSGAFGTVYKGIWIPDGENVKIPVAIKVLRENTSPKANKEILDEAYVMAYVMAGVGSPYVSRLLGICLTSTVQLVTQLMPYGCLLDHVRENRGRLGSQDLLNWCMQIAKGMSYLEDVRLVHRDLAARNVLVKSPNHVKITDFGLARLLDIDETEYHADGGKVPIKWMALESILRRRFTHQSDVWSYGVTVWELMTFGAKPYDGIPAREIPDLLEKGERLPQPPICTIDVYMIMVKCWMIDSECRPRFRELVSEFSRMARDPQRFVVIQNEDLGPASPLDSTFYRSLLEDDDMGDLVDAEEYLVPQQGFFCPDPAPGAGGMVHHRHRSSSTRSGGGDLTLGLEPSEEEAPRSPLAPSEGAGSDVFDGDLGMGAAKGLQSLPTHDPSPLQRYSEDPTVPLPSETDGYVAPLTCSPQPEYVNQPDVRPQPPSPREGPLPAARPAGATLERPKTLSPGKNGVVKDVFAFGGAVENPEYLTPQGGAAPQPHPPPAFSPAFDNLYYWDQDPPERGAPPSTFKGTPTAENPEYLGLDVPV
Method in brief: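 In-cell Western in NIH 3T3 cells carrying ErbB2 exon 20 YVMA insertion, with no ligand stimulation. One hour compound exposure at 37 °C before fixation and anti-pY1196 plus GAPDH staining with dual-wavelength fluorescence. IC50 derived after GAPDH normalization.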

Sequence of EGFR wild type (EGFR WT) (P00533 25-1210): as the sequence (P00533 25-1210) above

| SMILES | IC50 [1] [nM] | IC50 [2] [nM] | IC50 [3] [nM] | IC50 ([4]; read-out: Assay 1 IC50) [nM] | IC50 [5] [nM] | IC50 ([4]; Assay 1 IC50 (nM)) [nM] |
| --- | --- | --- | --- | --- | --- | --- |
| Cc1cc(Nc2ncnc3cnc(N4C[C@@H]5[C@@H](C#N)[C@@H]5C4)nc23)ccc1Oc1ccc2c(c1)ncn2C [Example 401] | ≥ 5000 | ≥ 10000 | 161 | 149 | 24.8 | – |
| Cc1cc(Nc2ncnc3cnc(N(C)C4COC4)nc23)ccc1Oc1ccn2ncnc2c1 [Example 403] | ≥ 5000 | 6630 | 12 | 16.7 | 339 | – |
| Cc1cc(Nc2ncnc3cnc(N4CC[C@@H](C#N)C4)nc23)ccc1Oc1ccn2ncnc2c1 [Example 404] | ≥ 5000 | 7550 | 37 | 22.8 | 182 | – |
| CN(CC(C)(C)O)c1ncc2ncnc(Nc3ccc(Oc4ccn5ncnc5c4)c(Cl)c3)c2n1 [Example 405] | ≥ 5000 | 4690 | 30.3 | 15.7 | 106 | – |
| N#CC[C@H]1CCN(c2ncc3ncnc(Nc4ccc(Oc5ccn6ncnc6c5)c(Cl)c4)c3n2)C1 [Example 406] | ≥ 5000 | 8280 | 32.3 | 16.6 | 63.6 | – |
| Cc1cc(Nc2ncnc3cnc(N4CCC[C@H]4C(C)(C)O)nc23)ccc1Oc1ccc2c(c1)ncn2C [Example 408] | ≥ 5000 | ≥ 10000 | 65.6 | 32.6 | 42.1 | – |
| Clc1cc(Nc2ncnc3cnc(N4CCOCC4)nc23)ccc1Oc1ccn2ncnc2c1 [Example 409] | ≥ 5000 | 3530 | 32.1 | 18.3 | 43 | – |
| FC(F)[C@H]1CCN1c1ncc2ncnc(Nc3ccc(Oc4ccn5ncnc5c4)c(Cl)c3)c2n1 [Example 410] | ≥ 5000 | 6300 | 42.3 | 14.7 | 208 | – |
| COC1CCN(c2ncc3ncnc(Nc4ccc(Oc5ccn6ncnc6c5)c(C)c4)c3n2)CC1 [Example 411] | ≥ 5000 | ≥ 10000 | 56.2 | 26.3 | 604 | – |
| Cc1cc(Nc2ncnc3cnc(N4CCOCC4)nc23)ccc1Oc1ccn2ncnc2c1 [Example 412] | ≥ 5000 | ≥ 10000 | 70.5 | 25.9 | 69.7 | – |
| Cc1cc(Nc2ncnc3cnc(N(C)C[C@H]4COCCO4)nc23)ccc1Oc1ccc2c(c1)ncn2C [Example 413] | ≥ 5000 | ≥ 10000 | 102 | 49.7 | 30.8 | – |
| Cc1cc(Nc2ncnc3cnc(N4CCC[C@@](C)(O)C4)nc23)ccc1Oc1ccn2ncnc2c1 [Example 414] | ≥ 5000 | 1410 | 23.7 | 25.2 | 140 | – |
| Cc1cc(Nc2ncnc3cnc(N(C)[C@@H]4CCCOC4)nc23)ccc1Oc1ccn2ncnc2c1 [Example 415] | ≥ 5000 | 970 | 16.8 | 16.9 | 94.6 | – |
| N#CC[C@@H]1CCN(c2ncc3ncnc(Nc4ccc(Oc5ccn6ncnc6c5)c(Cl)c4)c3n2)C1 [Example 416] | ≥ 5000 | 2240 | 21.5 | 11.3 | 27.1 | – |
| Cc1cc(Nc2ncnc3cnc(N4CCN5CCOC[C@H]5C4)nc23)ccc1Oc1ccn2ncnc2c1 [Example 417] | ≥ 5000 | 6860 | 62.1 | 31.4 | 62.6 | – |
| Clc1cc(Nc2ncnc3cnc(N4C[C@H]5C[C@@H]4CO5)nc23)ccc1Oc1ccn2ncnc2c1 [Example 418] | ≥ 5000 | ≥ 10000 | 103 | 42.8 | 229 | – |
| Cc1cc(Nc2ncnc3cnc(N4C5CCC4COC5)nc23)ccc1Oc1ccn2ncnc2c1 [Example 419] | ≥ 5000 | ≥ 10000 | 196 | 110 | 538 | – |
| Cc1cc(Nc2ncnc3cnc(N4CCC5COCC54)nc23)ccc1Oc1ccn2ncnc2c1 (centres unmarked) [Example 420] | ≥ 5000 | 1580 | 12.9 | 8.2 | 108 | – |
| Cc1cc(Nc2ncnc3cnc(N4CCN[C@@H](C(F)(F)F)C4)nc23)ccc1Oc1ccn2ncnc2c1 [Example 421] | ≥ 5000 | 4940 | 43 | 29.3 | 69.9 | – |

| SMILES | IC50 [1] [nM] | IC50 [2] [nM] | IC50 [3] [nM] | IC50 ([4]; read-out: Assay 1 IC50) [nM] | IC50 [5] [nM] | IC50 ([4]; Assay 1 IC50 (nM)) [nM] |
| --- | --- | --- | --- | --- | --- | --- |
| Cc1cc(Nc2ncnc3cnc(N4CC[C@@H]4C(C)(C)O)nc23)ccc1Oc1ccn2ncnc2c1 [Example 423] | ≥ 5000 | ≥ 10000 | 337 | 110 | 1950 | – |
| CN(c1ncc2ncnc(Nc3ccc(Oc4ccn5ncnc5c4)c(Cl)c3)c2n1)C1COC1 [Example 424] | ≥ 5000 | 3930 | 19.4 | 16 | 44.9 | – |
| Cc1cc(Nc2ncnc3cnc(N4CC5(CCN(C)C5=O)C4)nc23)ccc1Oc1ccc2c(c1)ncn2C [Example 425] | ≥ 5000 | ≥ 10000 | 495 | 68.1 | 185 | – |
| Clc1cc(Nc2ncnc3cnc(N4C[C@@H]5C[C@H]4CO5)nc23)ccc1Oc1ccn2ncnc2c1 [Example 426] | ≥ 5000 | 4210 | 16.2 | 16.2 | 112 | – |
| Cc1cc(Nc2ncnc3cnc(N(C)[C@@H]4CCOC4)nc23)ccc1Oc1ccn2ncnc2c1 [Example 427] | ≥ 5000 | 7940 | 43.1 | 25 | 121 | – |
| Cc1cc(Nc2ncnc3cnc(N4CCCO4)nc23)ccc1Oc1ccn2ncnc2c1 [Example 428] | ≥ 5000 | ≥ 10000 | 202 | 55.5 | 317 | – |
| FC(F)(F)[C@H]1CN(c2ncc3ncnc(Nc4ccc(Oc5ccn6ncnc6c5)c(Cl)c4)c3n2)CCN1 [Example 429] | ≥ 5000 | 3950 | 39.6 | 11.2 | 46.6 | – |
| Clc1cc(Nc2ncnc3cnc(N4CCN5CCOC[C@H]5C4)nc23)ccc1Oc1ccn2ncnc2c1 [Example 430] | ≥ 5000 | 4030 | 25.5 | 8.6 | 31.9 | – |
| Clc1cc(Nc2ncnc3cnc(N4CCN5CCOC[C@@H]5C4)nc23)ccc1Oc1ccn2ncnc2c1 [Example 431] | ≥ 5000 | ≥ 10000 | 63.1 | 21.8 | 232 | – |
| Cc1cc(Nc2ncnc3cnc(N4CCC[C@@H]5COC[C@@H]54)nc23)ccc1Oc1ccc2c(c1)ncn2C [Example 432] | ≥ 5000 | ≥ 10000 | 71.1 | 28.8 | 80.2 | – |
| O=S1(=O)CC[C@@H]2CN(c3ncc4ncnc(Nc5ccc(Oc6ccn7ncnc7c6)c(Cl)c5)c4n3)C[C@@H]21 [Example 433] | ≥ 5000 | ≥ 10000 | 67.4 | 29.3 | 385 | – |
| Clc1cc(Nc2ncnc3cnc(N4CC[C@@]45CCOC5)nc23)ccc1Oc1ccn2ncnc2c1 [Example 434] | ≥ 5000 | 760 | 10.2 | 8.4 | 161 | – |
| CON1CCN(c2ncc3ncnc(Nc4ccc(Oc5ccn6ncnc6c5)c(Cl)c4)c3n2)CC1 [Example 436] | ≥ 5000 | ≥ 10000 | 25 | 15.4 | 61.1 | – |
| Cc1c(Oc2ccc3c(c2)ncn3C)ccc(Nc2ncnc3cnc(N(C)CC(C)(C)O)nc23)c1F [Example 438] | ≥ 5000 | ≥ 10000 | 47 | 27.4 | 134 | – |
| Cn1cnc2cc(Oc3ccc(Nc4ncnc5cnc(N6C[C@@H]7C[C@H]6CO7)nc45)cc3Cl)ccc21 [Example 440] | ≥ 5000 | ≥ 10000 | 176 | – | 58.2 | 48.7 |
| Cn1cnc2cc(Oc3ccc(Nc4ncnc5cnc(N6C7CCC6COC7)nc45)cc3Cl)ccc21 [Example 441] | ≥ 5000 | 9570 | 67.2 | – | 89.1 | 106 |
| Cn1cnc2cc(Oc3ccc(Nc4ncnc5cnc(N6CC7(CCOC7)C6)nc45)cc3Cl)ccc21 [Example 442] | ≥ 5000 | ≥ 10000 | 180 | – | 105 | 69.5 |
| Cn1cnc2cc(Oc3ccc(Nc4ncnc5cnc(N6CCC7(CCOC7)C6)nc45)cc3Cl)ccc21 (centres unmarked) [Example 443] | ≥ 5000 | ≥ 10000 | 104 | – | 37.7 | 60.1 |

From US11834453B2, “Substituted pyrimido[5,4-d]pyrimidines as HER2 inhibitors” (Array BioPharma Inc., priority 2020, dated 2023)
